Entries after “also recorded” stand apart in the source; their conditions may differ. Like-named read-outs stand apart in the source and are kept apart here. Each block holds one molecule with its values, some of them ahead of it.
What was measured:
HeLa S3 cells [1] = test: MTT cytotoxicity assay, HeLa S3 cells; format: cell-based, human; details: treatment for 24 h
Method: (§1) HeLa S3, A549, and IMR-90 cells (1 × 10^4 cells/well) were seeded on 96-well plates (Watson) in cell culture medium. […] After incubation for 4 h, a formazan lysis solution (10% sodium dodecyl sulfate in 0.01 N HCl aq) (100 μL) was added and the resulting solution was incubated under same conditions overnight. The absorbance at λ = 570 nm was measured with a microplate reader (Bio-Rad).

IMR-90 cells = test: MTT cytotoxicity assay, IMR-90 cells; format: cell-based; details: 0–200 μM, treatment for 24 h, normal human fibroblast
Method: as §1

A549 cells [2] = test: MTT cytotoxicity assay, A549 cells; format: cell-based, human; details: read-out: IC50 A549
Method: as §1

[3] = Hydrolysis of the C–B bond observed by ^11B-NMR; format: physicochemical
Excerpt: The Zn^2+ complex of the o-form 7 was not obtained due to the carbon–boron bond cleavage that occurred upon complexation with Zn^2+, as previously described.[20]

A549 cells [4] = test: Anti-tumor effect with thermal neutron irradiation (colony formation assay); format: cell-based, human; details: A549, 30 μM for 24 h, thermal neutrons 0–45 min, colony formation after 7 days
Method: BNCT experiments using A549 cells in the presence of the aforementioned B-containing drugs (^10B/^11B and ^10B-enriched compounds) were conducted at the Institute for Integrated Radiation and Nuclear Science, Kyoto University (KURNS). As shown in Scheme 12, A549 cells were incubated with the boron compounds (30 μM) for 24 h and suspensions (5 × 10^4 cells/mL) of these cells were irradiated with thermal neutrons [average thermal neutron flux: (1.5 ± 0.1) × 10^9 n/cm^2·s] at room temperature for various times (0, 15, 30, and 45 min). The irradiated cells were seeded on the 12 well plate (3 × 10^3 cells/well), incubated for 7 days, fixed with EtOH, and stained with crystal violet to produce visualizable images (Figure S5 in the Supporting Information). The surviving fractions were calculated as the stained colony area using the “ImageJ-plugin Colony Area”[43] software and normalized by comparing the results with those for non-irradiated cell samples (Figure 6).
A549 cells (5 × 10^5 cells/well) were seeded on 6-well plates (TrueLine, USA) and incubated in cell culture medium at 37 °C under 5% CO2 for 1 day. After removing the cell culture medium, the cells were washed gently with PBS. […] The thermal neutron flux (1.5 × 10^9 n/cm^2·s) was measured by two gold foils which were attached to the surface of the 1.5 mL tube. […]

HeLa S3 cells [5] = test: Effect of inhibitors on intracellular uptake, HeLa S3 cells; format: cell-based, human; details: HeLa S3, 30 μM, 37 °C, 1 h
Method: Data represent the mean ± SD of at least three replicates.
HeLa S3 and A549 cells (5 × 10^5 cells/well) were seeded on 6-well plates (TrueLine, USA) and incubated in cell culture medium at 37 °C under 5% CO2 for 2 days (n = 4). […] To count the number of cells after treatment with the boron compounds, the cells (n = 1) were washed with PBS, detached by trypsin, and counted with a hemocytometer. For measurement of boron uptake, the cells (n = 3) were washed with PBS (1 mL ×3) and digested with 60% HNO3 aq (0.5 mL) at room temperature for 24 h, which were transferred to 15 mL centrifuge tubes with Milli-Q water (3.5 mL). These tubes were centrifuged at 3000 rpm and 4 °C for 10 min and then sample solutions were filtered. The concentration of boron atoms was determined by ICP–MS (NexION300S, PerkinElmer, Waltham, Massachusetts, USA).

[6] = test system: double-stranded calf-thymus DNA (ctDNA); test: Thermal denaturation (melting temperature) of ctDNA; format: binding; details: pH 7.4; for Tm of ctDNA: without additive 66
Method: Thermal denaturation experiments of ctDNA (50 μM in phosphate) in 10 mM HEPES buffer (pH 7.4) with I = 0.02 (NaNO3) were performed on a JASCO V-550 UV/vis spectrophotometer (JASCO, Tokyo, Japan) equipped with a thermoelectric temperature controller (±0.5 °C), a stirring unit, and a 10 mm quartz cuvette. All aqueous solutions were made with purified water. The concentration of ctDNA was determined by UV absorption spectroscopy based on its molar extinction coefficient at 253 nm (ε253 = 6.6 × 10^3).[31d],[45] […] The Tm value was graphically determined from the spectral data, and the ΔTm value for each condition was calculated from the results in the presence and absence of additives.

[7] = parameters: method as in earlier work; details: aqueous solution at 25 °C, ref 24−26; cited from earlier work
[8] = parameters: method as in PMID 32192025; details: aqueous solution at 25 °C; cited from earlier work
[9] = Homo sapiens, HeLa S3, 0–200 μM

Molecule: O=C(O)C(F)(F)F.OB(O)c1ccc(CN2CCNCCNCC2)cc1 [12a, 1-[(4-Boronopheny)methyl]-1,4,7-triazacyclononane]
IC50 (HeLa S3 cells [1]; [9]): > 200 µM | IC50 (IMR-90 cells; Homo sapiens, IMR-90, 24 h): > 200 µM | IC50 (A549 cells [2]; Homo sapiens, A549, 24 h): > 200 µM | melting point: 138 to 141 °C

Molecule: O=C(O)C(F)(F)F.OB(O)c1ccc(CN2CCNCCNCCNCC2)cc1 [13a, 1-[(4-Boronopheny)methyl]-1,4,7,10-tetraazacyclododecane]
IC50 (HeLa S3 cells [1]; [9]): > 200 µM | IC50 (IMR-90 cells; Homo sapiens, IMR-90, 24 h): > 200 µM | IC50 (A549 cells [2]; Homo sapiens, A549, 24 h): > 200 µM | melting point: 172 to 175 °C

Molecule: O=C(O)C(F)(F)F.OB(O)c1ccc(CN2CCNCCNCCNCCNCC2)cc1 [14a, 1-[(4-Boronopheny)methyl]-1,4,7,10,13-pentaazacyclopentadecane]
IC50 (HeLa S3 cells [1]; [9]): > 200 µM | IC50 (IMR-90 cells; Homo sapiens, IMR-90, 24 h): > 200 µM | IC50 (A549 cells [2]; Homo sapiens, A549, 24 h): > 200 µM | melting point: 136 to 137 °C

melting point: 65 to 67 °C
Molecule: c1cc(B2OC3(CCCCC3)C3(CCCCC3)O2)ccc1CN1CCNCCNCC1 [15a]

melting point: 57 to 58 °C
Molecule: c1cc(CN2CCNCCNCC2)cc(B2OC3(CCCCC3)C3(CCCCC3)O2)c1 [15b]

melting point: 129 to 131 °C
Molecule: c1cc(B2OC3(CCCCC3)C3(CCCCC3)O2)ccc1CN1CCNCCNCCNCC1 [16a]

melting point: 46 to 48 °C
Molecule: c1cc(CN2CCNCCNCCNCC2)cc(B2OC3(CCCCC3)C3(CCCCC3)O2)c1 [16b]

melting point: 43 to 44 °C
Molecule: c1cc(B2OC3(CCCCC3)C3(CCCCC3)O2)ccc1CN1CCNCCNCCNCCNCC1 [17a]

melting point: 78 to 80 °C
Molecule: c1ccc(B2OC3(CCCCC3)C3(CCCCC3)O2)c(CN2CCNCCNCCNCCNCC2)c1 [17c, 1-[2-(13,15-Dioxa-15-boradispiro[5.0.5.3]pentadec-14-yl)phenyl]methyl-1,4,7,10,13-pentaazacyclopentadecane]

half-life of C–B bond hydrolysis [3]: ~24 h
Molecule: [Zn+2].c1ccc(B2OC3(CCCCC3)C3(CCCCC3)O2)c(CN2CCNCCNCCNCCNCC2)c1 [20c]

Molecule: c1cc(C2OC3(CCCCC3)C3(CCCCC3)O2)ccc1CN1CCNCCNCCNCCNCC1 [^10B-17a, 1-[4-(13,15-Dioxa-15-boradispiro[5.0.5.3]pentadec-14-yl)phenyl]methyl-1,4,7,10,13-pentaazacyclopentadecane]
BNCT effect (cytotoxic activity after thermal neutron irradiation, surviving fraction) (A549 cells [4]): higher than that for 1 (^10B-BSH) and 2 (^10B-BPA); also recorded: higher BNCT effect than ^10B-19b and ^10B-20a

relative uptake in the presence of MβCD (HeLa S3 cells [5]; 1.5 mM of MβCD): weak inhibition | relative uptake in the presence of amiloride (HeLa S3 cells [5]; 2 mM of amiloride): increased intracellular uptake
Molecule: N[C@@H](Cc1ccc([10B](O)O)cc1)C(=O)O [compound 2, L-4-boronophenylalanine, reference compound]
IC50 (HeLa S3 cells [1]; [9]): > 200 µM | IC50 (IMR-90 cells; Homo sapiens, IMR-90, 24 h): > 200 µM | IC50 (A549 cells [2]; Homo sapiens, A549, 24 h, MTT, 0–200 μM, treatment for 24 h): > 200 µM

Molecule: NCCCCNCCCN [compound 3, spermidine]
ΔTm of ctDNA ([6]; r = 0.1, [ctDNA(P)] = 50 μM): +7 °C | Tm of ctDNA ([6]; r = 0.1, [ctDNA(P)] = 50 μM): 73 °C | ΔTm of ctDNA ([6]; r = 0.2, [ctDNA(P)] = 50 μM): +12 °C | Tm of ctDNA ([6]; r = 0.2, [ctDNA(P)] = 50 μM): 78 °C

Molecule: C1CNCCNCCN1 [compound 9, 1,4,7-triazacyclononane]
pKa1 [7]: less than 2

Molecule: C1CNCCNCCNCCN1 [compound 10, 1,4,7,10-tetraazacyclododecane]
pKa1 [7]: less than 2 | pKa2 [7]: less than 2

Molecule: C1CNCCNCCNCCNCCN1 [compound 11, 1,4,7,10,13-pentaazacyclopentadecane]
pKa1 [7]: less than 2 | pKa2 [7]: less than 2

Molecule: C1CNCCNCCN1.[Zn+2] [compound 31]
log KZnL [8]: 11.3

Molecule: sodium mercaptoborate [compound 1, reference compound]
IC50 (HeLa S3 cells [1]; 0–200 μM): > 200 µM | IC50 (IMR-90 cells): > 200 µM | IC50 (A549 cells [2]; MTT, 0–200 μM, treatment for 24 h): > 200 µM

Reference: article PMC8279495, “Design, Synthesis, and Biological Evaluation of Boron-Containing Macrocyclic Polyamines and Their Zinc(II) Complexes for Boron Neutron Capture Therapy” (Journal of Medicinal Chemistry, 2021)
